The results in this text go back to patent publication US6630497B2, “1-phenyl imidazol-2-one biphenylmethyl compounds for treatment of circulatory disorders” (G.D. Searle & Co, priority 1993, dated 2003).

One series relates to rabbit aortic rings. The experiment in a line: Assay B: In Vitro Vascular Smooth Muscle Response for AII. The format is cell-based. Details: key: NC = Non-competitive Antagonist. The following applies: AII contraction. On the procedure:
The compounds of the invention were tested for antagonist activity in rabbit aortic rings. Male New Zealand white rabbits (2-2.5 kg) were sacrificed using an overdose of pentobarbital and exsanguinated via the carotid arteries. The thoracic aorta was removed, cleaned of adherent fat and connective tissue and then cut into 3-mm ring segments. The endothelium was removed from the rings by gently sliding a rolled-up piece of filter paper into the vessel lumen. The rings were then mounted in a water-jacketed tissue bath, maintained at 37° C., between moveable and fixed ends of a stainless steel wire with the moveable end attached to an FT03 Grass transducer coupled to a Model 7D Grass Polygraph for recording isometric force responses. The bath was filled with 20 ml of oxygenated (95% oxygen/5% carbon dioxide) Krebs solution of the following composition (mM): […], 1.2 NaH2P04, 1.2 MgS04, 2.5 CaCl2, and 11.4 glucose. The preparations were equilibrated for one hour before approximately one gram of passive tension was placed on the rings. Angiotensin II concentration-response curves were then recorded (3×10^−10 to 1×10^−5 M). […] The effectiveness of the test compound was expressed in terms of pA2 values and were calculated according to H. O. Schild [Br. J. Pharmacol. Chemother., 2,189-206 (1947)]. […] Each test antagonist was evaluated in aorta rings from two rabbits.

Series [1] concerns the target smooth muscle angiotensin II receptor. The experiment in a line: Assay A: Angiotensin II Binding Activity (125I-AII displacement, rat uterine membrane preparation). The following applies: 50% displacement of specifically bound 125I-AII, rat uterine membranes, 25° C., 60 min. The protocol:
Compounds of the invention were tested for ability to bind to the smooth muscle angiotensin II receptor using a rat uterine membrane preparation. […] Other chemicals were obtained from Sigma Chemical Co. This assay was carried out according to the method of Douglas et al [Endocrinology, 106, 120-124 (1980)]. Rat uterine membranes were prepared from fresh tissue. All procedures were carried out at 4° C. Uteri were stripped of fat and homogenized in phosphate-buffered saline at pH 7.4 containing 5 mM EDTA. The homogenate was centrifuged at 1500×g for 20 min., and the supernatant was recentrifuged at 100,000×g for 60 min. The pellet was resuspended in buffer consisting of 2 mM EDTA and 50 mM Tris-HCl (pH 7.5) to a final protein concentration of 4 mg/ml. […] The reaction was initiated by the addition of membrane protein and the mixture was incubated at 25° C. for 60 min. The incubation was terminated with ice-cold 50 mM Tris-HCl (pH 7.5) and the mixture was filtered to separate membrane-bound labelled peptide from the free ligand. The incubation tube and filter were washed with ice-cold buffer. Filters were assayed for radioactivity in a Micromedic gamma counter. Nonspecific binding was defined as binding in the presence of 10 μM of unlabelled AII. Specific binding was calculated as total binding minus nonspecific binding.
Binding data were analyzed by a nonlinear least-squares curve fitting program.

Another series relates to pressor response to AII. The experiment in a line: Assay C: In Vivo Intragastric Pressor Assay Response for AII Antagonists. The following applies: rat, 3 mg/kg intragastric (i.g.); for Assay C Inhibition (%): inhibition of pressor response to 30 ng/kg AII bolus; for Assay C Duration: duration of inhibition of AII pressor response, measured up to 180 min. On the procedure:
Male Sprague-Dawley rats weighing 225-300 grams were anesthetized with methohexital (30 mg/kg, i.p.) and catheters were implanted into the femoral artery and vein. The catheters were tunneled subcutaneously to exit dorsally, posterior to the head and between the scapulae. The catheters were filled with heparin (1000 units/ml of saline). The rats were returned to their cage and allowed regular rat chow and water ad libitum. After full recovery from surgery (3-4 days), rats were placed in Lucite holders and the arterial line was connected to a pressure transducer. Arterial pressure was recorded on a Gould polygraph (mmHg). Angiotensin II was administered as a 30 ng/kg bolus via the venous catheter delivered in a 50 μl volume with a 0.2 ml saline flush. The pressor response in mm Hg was measured by the difference from pre-injection arterial pressure to the maximum pressure achieved. The AII injection was repeated every 10 minutes until three consecutive injections yielded responses within 4 mmHg of each other. These three responses were then averaged and represented the control response to AII. The test compound was suspended in 0.5% methylcellulose in water and was administered by gavage. The volume administered was 2 ml/kg body weight. The standard dose was 3 mg/kg. Angiotensin II bolus injections were given at 30, 45, 60, 75, 120, 150, and 180 minutes after gavage. The pressor response to AII was measured at each time point. The rats were then returned to their cage for future testing. A minimum of 3 days was allowed between tests. Percent inhibition was calculated for each time point following gavage by the following formula: [(Control Response—Response at time point)/Control Response] ×100.

The term IC50 denotes the midpoint of a concentration-inhibition curve. As a reminder, the melting point is the temperature of the solid-liquid transition.

`CCCCc1cn(-c2ccccc2CC)c(=O)n1Cc1ccc(-c2ccccc2-c2nnn[nH]2)cc1` [Example 1, 1-(2-ethylphenyl)-4-butyl-1,3-dihydro-3-[2′-(1H-tetrazol-5-yl)[1,1′-biphenyl]-4-ylmethyl]-2H-imidazol-2-one] yielded a melting point of 188 to 189 °C. Moreover, the “Assay B pA2: type of antagonism” value in the series with rabbit aortic rings is recorded as “NC”. This compound gave a half-maximal inhibitory concentration (IC50) in series [1] of 14 nM. In addition, in the series on pressor response to AII, the “Assay C Inhibition (%)” value is on record as 20%/—.

The compound `CCCCc1cn(-c2ccccc2C(C)C)c(=O)n1Cc1ccc(-c2ccccc2-c2nnn[nH]2)cc1` [Example 2, 1-(2-isopropylphenyl)-4-butyl-1,3-dihydro-3-[2′-(1H -tetrazol-5-yl)[1,1′-biphenyl]-4-ylmethyl]-2H-imidazol-2-one] gave a melting point of 167 to 168 °C. In addition, the “Assay B pA2: type of antagonism” value in the series with rabbit aortic rings is listed as “NC”. Besides, in series [1], the half-maximal inhibitory concentration (IC50) was 97 nM. In the series with pressor response to AII, the “Assay C Duration” value is greater than 180 min and the “Assay C Inhibition (%)” value turned out to be 70%.

With `CCCCc1cn(-c2c(OC)cccc2OC)c(=O)n1Cc1ccc(-c2ccccc2-c2nnn[nH]2)cc1` [Example 3, 1-(2,6-dimethoxyphenyl)-4-butyl-1,3-dihydro-3-[2′-(1H -tetrazol-5-yl)[1,1′-biphenyl]-4-ylmethyl]-2H-imidazol-2-one], the melting point is 189 to 191 °C (dec.). Further, the 50% inhibitory concentration (IC50) in series [1] came to 9.8 nM. Moreover, in the series with pressor response to AII, the “Assay C Duration” value is greater than 180 min and the “Assay C Inhibition (%)” value is given as 25%.

Take `CCCCc1cn(-c2c(C)cccc2Cl)c(=O)n1Cc1ccc(-c2ccccc2-c2nnn[nH]2)cc1` [Example 4, 1-(2-chloro-6-methylphenyl) -4-butyl-1,3-dihydro-3-[2′-(1H-tetrazol-5-yl) [1,1′-biphenyl]-4-ylmethyl]-2H -imidazol-2-one]: the melting point was in the range of 163 to 164 °C. For the same compound, in series [1], the IC50 was found to be 13 nM. Further, in the series on pressor response to AII, the “Assay C Duration” value was greater than 180 min and the “Assay C Inhibition (%)” value was 35%.

For `CCCCc1cn(-c2c(C)cccc2C)c(=O)n1Cc1ccc(-c2ccccc2-c2nnn[nH]2)cc1` [Example 5, 1-(2,6-dimethylphenyl)-4-butyl-1,3-dihydro-3-[2′-(1H-tetrazol-5-yl)[1,1′-biphenyl]-4-ylmethyl]-2H -imidazol-2-one], the melting point is 177 to 178 °C (dec.). The compound also showed an IC50 in series [1] of 6.3 nM. Also, in the series on pressor response to AII, the “Assay C Duration” value is greater than 180 min and the “Assay C Inhibition (%)” value is listed as 40%.

With `CCCCc1cn(-c2c(CC)cccc2CC)c(=O)n1Cc1ccc(-c2ccccc2-c2nnn[nH]2)cc1` [Example 6, 1-(2,6-diethylphenyl) -4-butyl-1,3-dihydro-3-[2′-(1H -tetrazol-5-yl) [1,1′-biphenyl]-4-ylmethyl]-2H-imidazol-2-one], the melting point was 198 to 200 °C (dec.). The same compound gave an IC50 in series [1] of 33 nM. Besides, the “Assay C Inhibition (%)” value in the series on pressor response to AII is less than 20%.

In the case of `CCCCc1cn(-c2c(C(C)C)cccc2C(C)C)c(=O)n1Cc1ccc(-c2ccccc2-c2nnn[nH]2)cc1` [Example 7, 1-(2,6-diisopropylphenyl)-4-butyl-1,3-dihydro-3-[2′-(1H-tetrazol-5-yl)[1,1′-biphenyl]-4-ylmethyl]-2H -imidazol-2-one], the melting point is 202 to 203 °C (dec.). In addition, the half-inhibitory concentration (IC50) in series [1] is 190 nM.

Regarding `CCCCc1cn(-c2c(C)cc(C)cc2C)c(=O)n1Cc1ccc(-c2ccccc2-c2nnn[nH]2)cc1` [Example 8, 1-(2,4,6-trimethylphenyl)-4-butyl-1,3-dihydro-3-[2′-(1H-tetrazol-5-yl)[1,1′-biphenyl]-4-ylmethyl]-2H -imidazol-2-one], the melting point is 187 to 188 °C (dec.). This compound also yielded an IC50 in series [1] of 30 nM. Also, in the series with pressor response to AII, the “Assay C Duration” value was greater than 180 min and the “Assay C Inhibition (%)” value was 50%.

The compound `CCCCc1cn(-c2c(C)cc(C(C)(C)C)cc2C)c(=O)n1Cc1ccc(-c2ccccc2-c2nnn[nH]2)cc1` [Example 9, 1-(2,6-dimethyl-4-tertbutylphenyl) -4-butyl-1,3-dihydro-3-[2′-(1H-tetrazol-5-yl)[1,1′-biphenyl]-4-ylmethyl]-2H -imidazol-2-one] yielded a melting point of 134 to 135 °C. The IC50 in series [1] is 270 nM.
